Legend:
Assay type in all cases: in vivo
[1] = system: Abutilon theophrasti (ABUTH); assay: A. Herbicidal pre-emergence efficacy, ABUTH; conditions: scored visually after about 3 weeks vs untreated controls
Summary of the method: (§1)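 Pre-emergence soil-surface spray in sandy loam pots, WP/EC in water plus 0.5% additive, 600 L/ha. Visual % damage rating after about 3 weeks in greenhouse vs. untreated; 0% = control-like, 100% = dead plants. Rates up to 1280 g/ha.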

Kochia scoparia (KCHSC) = assay: A. Herbicidal pre-emergence efficacy, KCHSC
Summary of the method: as §1

Veronica persica (VERPE) [2] = assay: A. Herbicidal pre-emergence efficacy, VERPE
Summary of the method: as §1

Setaria viridis (SETVI) = assay: B. Herbicidal post-emergence efficacy, SETVI
Summary of the method: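 First, seeds were sown in sandy loam and grown 2 to 3 weeks under controlled greenhouse conditions. Next, foliage at the one-leaf stage received the formulated compound in water with 0.5% additive (600 L/ha, 1280 g/ha or less). Finally, damage was rated visually after about 3 weeks against untreated plants.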

[3] = system: Alopecurus myosuroides (ALOMY); assay: C. Herbicidal pre-emergence efficacy, ALOMY; conditions: 320 g/ha, scored after about 3 weeks
Source text: Seeds of monocotyledonous and dicotyledonous weed plants and crop plants were placed in plastic or organic planting pots and covered with soil. The compounds of the invention, formulated in the form of wettable powders (WP) or as emulsion concentrates (EC), were then applied to the surface of the covering soil as aqueous suspension or emulsion with addition of 0.5% additive at a water application rate equivalent to 600 l/ha (converted). After the treatment, the pots were placed in a greenhouse and kept under good growth conditions for the test plants. After about 3 weeks, the efficacy of the preparations was scored visually in comparison with untreated controls as percentages. For example, • 100% efficacy=plants have died, • 0% efficacy=like untreated control plants.
Tables C1a to C14b below show the effects of selected compounds of the general formula (I) according to table 1 on various harmful plants at an application rate corresponding to 320 g/ha or less, which were obtained by the experimental procedure mentioned above.

Veronica persica (VERPE) [4] = assay: C. Herbicidal pre-emergence efficacy, VERPE; conditions: 320 g/ha, scored after about 3 weeks
Summary of the method: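 Pre-emergence test: formulated compounds sprayed as aqueous suspension or emulsion with 0.5% additive at 600 l/ha onto soil covering sown seeds, at rates corresponding to 320 g/ha or less. After about 3 weeks in greenhouse, efficacy scored visually as percent versus untreated controls (100% = plants dead).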

Viola tricolor (VIOTR) = assay: E. Herbicidal post-emergence efficacy, VIOTR; conditions: application rate 320 g/ha
Summary of the method: (§2)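 Greenhouse post-emergence spray, one-leaf stage (2–3 wk after sowing, sandy loam); WP/EC formulation, aqueous + 0.5% additive, 600 l/ha water; rates 320 g/ha or less. Visual rating ~3 wk later vs untreated; 0% = control-like, 100% = dead.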

[5] = system: Echinochloa crus-galli (ECHCG); assay: E. Herbicidal post-emergence efficacy, ECHCG; conditions: application rate 320 g/ha
Summary of the method: as §2

[6] = 80 g/ha, scored visually after about 3 weeks vs untreated controls
[7] = pre-emergence, dosage 1280 g/ha

O=S(=O)(CCl)Oc1ccccc1Oc1ncc(Cl)cn1 [Example I-9]
100%: Pre-emergence efficacy against KCHSC (Kochia scoparia (KCHSC); pre-emergence, dosage 320 g/ha) | Pre-emergence efficacy against KCHSC (Kochia scoparia (KCHSC); [7]) | Pre-emergence efficacy against VERPE in % (Veronica persica (VERPE) [2]; 1280 g/ha) | Pre-emergence efficacy against VERPE (Veronica persica (VERPE) [4])
80%: Pre-emergence efficacy against ALOMY [3] | Post-emergence efficacy against VIOTR in % (Viola tricolor (VIOTR))
90%: Pre-emergence efficacy against ABUTH ([1]; 1280 g/ha) | Pre-emergence efficacy against KCHSC (Kochia scoparia (KCHSC); [6]) | Post-emergence efficacy against SETVI (Setaria viridis (SETVI); 1280 g/ha)

Cc1cccc(OS(=O)(=O)CCCCl)c1Oc1ncc(Cl)cn1 [Example I-12]
80%: Post-emergence efficacy against VIOTR in % (Viola tricolor (VIOTR))
100%: Pre-emergence efficacy against ABUTH ([1]; 1280 g/ha) | Pre-emergence efficacy against KCHSC (Kochia scoparia (KCHSC); [7]) | Pre-emergence efficacy against VERPE in % (Veronica persica (VERPE) [2]; 1280 g/ha)
90%: Pre-emergence efficacy against ABUTH ([1]; 80 g/ha) | Pre-emergence efficacy against ABUTH ([1]; 320 g/ha) | Pre-emergence efficacy against KCHSC (Kochia scoparia (KCHSC); pre-emergence, dosage 320 g/ha) | Pre-emergence efficacy against VERPE in % (Veronica persica (VERPE) [2]; 320 g/ha) | Post-emergence efficacy against SETVI (Setaria viridis (SETVI); 1280 g/ha) | Pre-emergence efficacy against VERPE (Veronica persica (VERPE) [4]) | Post-emergence efficacy against ECHCG in % [5]

O=S(=O)(CCCCl)Oc1cccc(F)c1Oc1ncc(Cl)cn1 [Example I-13]
90%: Pre-emergence efficacy against ABUTH ([1]; 320 g/ha) | Pre-emergence efficacy against VERPE (Veronica persica (VERPE) [4])
100%: Pre-emergence efficacy against ABUTH ([1]; 1280 g/ha) | Pre-emergence efficacy against KCHSC (Kochia scoparia (KCHSC); [7]) | Pre-emergence efficacy against VERPE in % (Veronica persica (VERPE) [2]; 1280 g/ha)

CCS(=O)(=O)Oc1ccccc1Oc1ncc(Cl)cn1 [Example I-16]
100%: Pre-emergence efficacy against ABUTH ([1]; 320 g/ha) | Pre-emergence efficacy against ABUTH ([1]; 1280 g/ha) | Pre-emergence efficacy against KCHSC (Kochia scoparia (KCHSC); [6]) | Pre-emergence efficacy against KCHSC (Kochia scoparia (KCHSC); pre-emergence, dosage 320 g/ha) | Pre-emergence efficacy against KCHSC (Kochia scoparia (KCHSC); [7]) | Pre-emergence efficacy against VERPE in % (Veronica persica (VERPE) [2]; 1280 g/ha)
90%: Pre-emergence efficacy against VERPE in % (Veronica persica (VERPE) [2]; 320 g/ha) | Post-emergence efficacy against SETVI (Setaria viridis (SETVI); 1280 g/ha)

CCCCCS(=O)(=O)Oc1ccccc1Oc1ncc(Cl)cn1 [Example I-24]
100%: Pre-emergence efficacy against KCHSC (Kochia scoparia (KCHSC); [7])
80%: Post-emergence efficacy against ECHCG in % [5] | Post-emergence efficacy against VIOTR in % (Viola tricolor (VIOTR))
90%: Post-emergence efficacy against SETVI (Setaria viridis (SETVI); 1280 g/ha) | Pre-emergence efficacy against VERPE (Veronica persica (VERPE) [4])

Cc1cccc(Oc2ncc(Cl)cn2)c1OS(=O)(=O)CCCC(F)(F)F [Example I-28, 2-[(5-Chloropyrimidin-2-yl)oxy]-6-methylphenyl 4,4,4-trifluorobutane-1-sulfonate]
100%: Pre-emergence efficacy against ABUTH ([1]; 80 g/ha) | Pre-emergence efficacy against ABUTH ([1]; 320 g/ha) | Pre-emergence efficacy against ABUTH ([1]; 1280 g/ha) | Pre-emergence efficacy against VERPE in % (Veronica persica (VERPE) [2]; 320 g/ha) | Pre-emergence efficacy against VERPE in % (Veronica persica (VERPE) [2]; 1280 g/ha)
90%: Pre-emergence efficacy against KCHSC (Kochia scoparia (KCHSC); pre-emergence, dosage 320 g/ha) | Pre-emergence efficacy against KCHSC (Kochia scoparia (KCHSC); [7]) | Post-emergence efficacy against SETVI (Setaria viridis (SETVI); 320 g/ha) | Post-emergence efficacy against SETVI (Setaria viridis (SETVI); 1280 g/ha)

Cc1cccc(Oc2ncc(Cl)cn2)c1OS(=O)(=O)CCC(F)(F)F [Example I-29]
90%: Pre-emergence efficacy against ABUTH ([1]; 80 g/ha) | Pre-emergence efficacy against KCHSC (Kochia scoparia (KCHSC); pre-emergence, dosage 320 g/ha)
100%: Pre-emergence efficacy against ABUTH ([1]; 320 g/ha) | Pre-emergence efficacy against ABUTH ([1]; 1280 g/ha) | Pre-emergence efficacy against KCHSC (Kochia scoparia (KCHSC); [7]) | Pre-emergence efficacy against VERPE in % (Veronica persica (VERPE) [2]; 320 g/ha) | Pre-emergence efficacy against VERPE in % (Veronica persica (VERPE) [2]; 1280 g/ha) | Pre-emergence efficacy against VERPE (Veronica persica (VERPE) [2]; dosage 80 g/ha) | Post-emergence efficacy against SETVI (Setaria viridis (SETVI); 320 g/ha) | Post-emergence efficacy against SETVI (Setaria viridis (SETVI); 1280 g/ha)

O=S(=O)(CCCC(F)(F)F)Oc1c(Br)cccc1Oc1ncc(Cl)cn1 [Example I-30]
100%: Pre-emergence efficacy against ABUTH ([1]; 1280 g/ha) | Pre-emergence efficacy against KCHSC (Kochia scoparia (KCHSC); pre-emergence, dosage 320 g/ha) | Pre-emergence efficacy against KCHSC (Kochia scoparia (KCHSC); [7]) | Pre-emergence efficacy against VERPE in % (Veronica persica (VERPE) [2]; 320 g/ha) | Pre-emergence efficacy against VERPE in % (Veronica persica (VERPE) [2]; 1280 g/ha)
90%: Pre-emergence efficacy against ABUTH ([1]; 320 g/ha)
